# Laboratory results from patent US10471054B2, “CDK1 inhibitors of acetyl chrysin mannich base derivatives, synthesis and use thereof” (priority 2016, dated 2019).
# Tests used:
# [1] = target: CDK1 (Homo sapiens, UniProt P06493); assay: CDK1 inhibition activity; format: biochemical
# [2] = system: Bcl-2; assay: Bcl-2 expression in MCF-7; format: cell-based; settings: 10 μM for 24 h
# [3] = system: MCF-7 and COS-7; assay: .OH level, CCy-OH fluorescent probe imaging; format: cell-based; settings: 12.5 μM for 5 h
# [4] = system: BGC-823; assay: Anti-cancer cells proliferation activity (MTT, 48 h); format: cell-based; settings: Homo sapiens, BGC-823, MTT
# Protocol: Anti-cancer cells proliferationactivity of in vitro CH-j and CH-f were shown in TABLE 2 for the results of the screening of 5 cancers cells.
# FIG. 2: The initial screening results of the anticancer activity of BGC-823 (MTT, for 48 h), and X-coordinate is the drug concentration (MTT, for 48 h), and Y-coordinate the cell survival rate (%) in vitro.
# [5] = system: Hep G2; assay: NaOCl level, BODTPY-OCl fluorescent probe imaging; format: cell-based; settings: CH-j 40 μM or HCPT 5 μM for 4 h
# Protocol: In vitro cultured Hep G2 was given by BODTPY-OCl selective fluorescent probe 5 μM for 0.5 h, added CH-j 40 μM or HCPT 5 μM for 4 h, and performed fluorescence imaging.
# [6] = log P in Octanol/Water; format: physicochemical; settings: Octanol/Water at 37° C.
# Protocol: The solubility and log P of acetyl ChrysinMannich base derivatives see TABLE 1.
# (§1) CH-j is pKa 5.3, log P 1.63 in Octanol/Water at 37° C. […] (BA-j 77m/ml). CH-j belongs to BCS II (low solubility, high permeability) and solubility presents the pH dependence. […] CH-j is a pH dependent fast release. […] It is speculated that CH-j has more appropriate log P and solubility with more likely entering tissue cells than others solubility acetyl Chrysin Mannich base derivatives.
# (§2) (about 20 times BA-f 277 μg/ml) and 564 μg/ml in water at 37° C. (about 1000 times BA-f 0.53m/ml). CH-f is BCS I (high solubility and permeability) and solubility presents the pH dependence. It is speculated that CH-f has more appropriate log P and solubility with entering systemic (blood system and tissue cells) than others solubility acetyl Chrysin Mannich base derivatives.
# [7] = Dissolution in pH media; format: physicochemical; settings: 37° C.
# Protocol: as §1
# [8] = Protein binding rate and reversible binding rate; format: in vitro ADME; settings: plasma proteins
# Protocol: (§3) The combination of drugs and plasma proteins is usually reversible, and the affinity strength is determined by the reversible binding rate of the drug-protein complex. Only free drugs can spread to the tissue through the lipid membrane. By modifying the structure of the drug, the effect of the drug on the target site can be improved by improving the reversible binding rate of the drug-protein complex.
# (§4) The acidic part of polyphenol hydroxyl group is combined with lysine alkaline site in albumin structure. The protein binding rate and reversible binding rate of CH-j see TABLE 2.
# [9] = system: plasma proteins; assay: Protein binding rate and reversible binding rate; format: in vitro ADME
# Protocol: as §3, §4
# [10] = system: MCF-7; assay: Hoechst 33258 fluorescence staining, apoptosis; format: cell-based; settings: 0, 5, 10, 20 μM for 24 h
# Protocol: Hoechst 33258 is an active fluorescent dye with DNA specific binding, which is mainly combined with base area of DNA, which emits blue fluorescence when stimulated by ultraviolet light. The living cells emit uniform fluorescence, the apoptotic cells are bright blue fluorescence due to their chromatin fixation, dense and concentrated nuclei.
# MCF-7 was treated with 0, 5, 10, 20 μM of CH-f and CH-j for 24 h, Hoechst 33258 fluorescence staining, and cell morphological changes were shown in FIG. 3-1. […] CH-f and CH-j are completely different from the cytotoxic drug HCPT, which appears to be apoptotic at low doses and necrotic at high doses in BGC-823.
# FIG. 3-1 Hoechst 33258 staining results for MCF-7.
# [11] = system: HIF-1α; assay: HIF-1α expression in BGC-823, immune-printing; format: cell-based; settings: 0, 2.5, 5, 10 μM for 1 h, then insulin
# Protocol: BGC-823 was treated with 0, 2.5, 5, 10 μM CH-j for 1 h, then the 2 μM insulin was added, and 2 h were cultured, and the cells were collected and lysed.
# FIG. 4: CH-j effect on the HIF-1 of BGC-823 was treated with 0, 2.5, 5, 10 μM CH-j for 1 h, then added 0.2 μM insulin culture for 24 h, and the HIF-1α and HIF-1β were determined by the immune imprinting method.
# [12] = system: BGC-823; assay: PI staining flow cytometry, cell cycle; format: cell-based; settings: 24 h
# Excerpt: PI specificity is combined with DNA, and the fluorescence intensity is in a good linear relationship with the combination of PI. After cell fixation, PI staining was used for quantitative analysis of DNA content in cells by flow cytometry. Since the amount of DNA in different cell cycles varies, it can be determined that the drug actions on the cell cycle. In cell apoptosis, there are many characteristic changes in the cell and molecular level, and the most characteristic of the change of nucleus is the change of nucleus. Due to activate apoptosis cells, DNA degradation, reduce the cell DNA, and therefore can be in the GO/G1 peak appeared before a diploid apoptosis peak (sub-G1), […] pyrolysis peak integer times of DNA, no less than […] pyrolysis peak.
# In addition, high concentrations of drugs can also reduce the proportion of S stage cells.
# FIG. 3-2 PI staining results for BGC-823.
# [13] = pKa; format: physicochemical
# Protocol: as §1, §2
# [14] = system: MCF-7; assay: Autophagy in MCF-7; format: cell-based; settings: 50 μM for 9 h and 24 h
# CDK1, sequence (P06493 whole entry, species assumed): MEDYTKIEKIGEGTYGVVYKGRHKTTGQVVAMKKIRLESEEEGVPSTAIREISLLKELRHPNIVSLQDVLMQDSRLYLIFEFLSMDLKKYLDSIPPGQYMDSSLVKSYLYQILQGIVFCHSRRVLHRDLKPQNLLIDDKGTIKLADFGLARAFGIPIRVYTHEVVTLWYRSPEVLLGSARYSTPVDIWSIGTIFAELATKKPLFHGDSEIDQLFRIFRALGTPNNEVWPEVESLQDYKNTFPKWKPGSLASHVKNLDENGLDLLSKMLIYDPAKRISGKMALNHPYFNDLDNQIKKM
# CDK1, sequence (P14635 whole entry partner, species assumed): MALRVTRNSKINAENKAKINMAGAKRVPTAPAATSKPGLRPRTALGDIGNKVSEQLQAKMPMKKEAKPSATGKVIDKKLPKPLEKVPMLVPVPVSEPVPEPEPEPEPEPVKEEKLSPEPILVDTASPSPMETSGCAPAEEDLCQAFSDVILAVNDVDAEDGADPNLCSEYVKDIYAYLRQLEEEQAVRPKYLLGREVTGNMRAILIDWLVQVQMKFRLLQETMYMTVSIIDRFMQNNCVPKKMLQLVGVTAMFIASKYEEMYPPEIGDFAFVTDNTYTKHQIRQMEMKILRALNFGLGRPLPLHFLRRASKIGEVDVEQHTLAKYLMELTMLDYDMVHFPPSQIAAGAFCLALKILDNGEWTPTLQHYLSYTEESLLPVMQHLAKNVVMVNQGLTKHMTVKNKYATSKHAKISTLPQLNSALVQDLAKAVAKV
structure (smiles),measurement,setting,value
"CC(=O)c1c(O)c(CN2CCC(O)CC2)c2oc(-c3ccccc3)cc(=O)c2c1O [CH-j, 6-Acetyl-5,7-dihydroxy-8-(4-hydroxy-piperidin-1-ylmethyl)-2-phenyl-chromen-4-one]","CDK1 inhibition, times stronger than BA-j",[1],about 2 times
same,CDK1 50% inhibitory concentration,[1]; read-out: inhibiting CDK1 CC50,150 nM
same,Bcl-2 expression,[2],Bcl-2 expression can be suppressed
same,"Level of .OH, red fluorescence",[3],present red fluorescence in MCF-7 and no in COS-7
same,IC50,[4],6.3 ± 1.13 µM
same,"NaOCl, yellow green fluorescence",[5],not present yellow green fluorescence
same,log P,[6],1.64
same,logP,[6]; octanol/water,1.63
same,Dissolution,[7]; 0.05M NaAC-HAC buffered solution (pH4.5),90%
same,Dissolution,[7]; 0.1M HCl (pH1.2),62%
same,Dissolution,[7]; PBS (pH6.8),< 1.0%
same,Dissolution,[7]; water,< 0.1%
same,fraction unbound,"[8]; average of 3 concentrations, read-out: Protein binding rate AV (converted)",0.14
same,fraction unbound at 12.5 μg/ml,[8]; drug concentration 12.5 μg/ml,0.114
same,fraction unbound at 25 μg/ml,[8]; drug concentration 25 μg/ml,0.156
same,fraction unbound at 50 μg/ml,[8]; drug concentration 50 μg/ml,0.151
same,Reversie binding rate AV,[9]; average of 3 concentrations,90.0%
same,Reversie binding rate,[9]; drug concentration 12.5 μg/ml,90.3%
same,Reversie binding rate,[9]; drug concentration 25 μg/ml,89.6%
same,Reversie binding rate,[9]; drug concentration 50 μg/ml,90.1%
same,Apoptosis by Hoechst 33258 staining,[10],apoptosis cell percentage in dose dependent increase
same,HIF-1α expression,[11],inhibited HIF-1α expression in a dose-dependent manner
same,Cell cycle effect by PI staining,[12],"block the BGC-823 in G1, G2 phase"
same,pKa,[13],5.3
same,Autophagy,[14],can cause autophagy
